Experimental data: publication PMC8694143 (Microbiology Spectrum, 2021)
In brackets after ≈: the same amount, converted by molar mass. Entries after “also recorded” stand apart in the source; their conditions may differ. Non-standard residues stand in square brackets, D forms with d. Residues, ends and D or L forms follow the SMILES beside them. No end group written: not given here. *: point of attachment. 5FAM = O=C1OC2(c3ccc(O)cc3Oc3cc(O)ccc32)c2ccc(C(=O)*)cc21

Legend:
[1] = Circular dichroism spectroscopy; type: physicochemical; conditions: CD, 50% TFE (vol/vol), peptide 0.2 mg/mL, room temperature
Method: Peptides were dissolved in ultrapure water or 50% TFE (vol/vol) at a concentration of 0.2 mg/mL for spectroscopy. Spectra of samples in a 1 mm pathlength quartz cuvette were recorded from 180 to 260 nm at 0.5 nm steps using an Applied Photophysics Chirascan Plus CD spectrophotometer operating at room temperature.

MRSA ATCC 33592 = experiment: MIC determination in broth; type: cell-based, Staphylococcus aureus; conditions: for MIC, S. aureus ATCC 33592 (SCCmec III): Table S5, STIP3 variants, highest conc. tested 100 μg/mL, 2-fold dilution series
Method: (§1) M. luteus ATCC 4698, S. aureus ATCC 29213, a panel of 7 MRSA (ATCC MP-2) strains, which includes ATCC BAA-41, BAA-42, BAA-44, BAA-1683, BAA-2094, BAA-2313, and 33592, and a series of additional bacterial isolates from human and veterinary cases were used in this study (Table S6). Bacterial strains were routinely grown in lysogeny broth (LB: 10 g/L tryptone, 5 g/L yeast extract, 10 g/L NaCl) at 30°C (M. luteus) or 37°C (Staphylococcus spp.) prior to use in specific experiments described below.
(§2) The MICs were measured for bioactive peptides identified from the initial screen. Cation-adjusted Mueller-Hinton (MH) broth was used as the growth medium for MIC determination experiments. Bacterial cultures were diluted to an OD of 5 × 10^−4 (∼10^5 CFU/mL) in 200 μL MH broth mixed with peptides in a 2-fold dilution series arrayed in 96-well plates. Plates were incubated without shaking at 30 or 37°C depending on the organism.

S. aureus ATCC 29213 = experiment: MIC determination in broth; type: cell-based, Staphylococcus aureus; conditions: STIP3 variants, highest conc. tested 100 μg/mL; cation-adjusted MH broth, ~10^5 CFU/mL, 2-fold dilution series, 37°C, 16 h
Method: as §1, §2

SspA = SspA protease resuspended at 2 mg/mL in 100 mM HEPES (pH 7.8); conditions: 37°C, up to 5 h
M. luteus ATCC 4698 = experiment: MIC determination in broth; type: cell-based, Micrococcus luteus; conditions: cation-adjusted MH broth, ~10^5 CFU/mL, 30°C, 48 h
Method: as §1, §2

MRSA ATCC BAA-42 = experiment: MIC determination in broth; type: cell-based, Staphylococcus aureus; conditions: STIP3 variants, highest conc. tested 100 μg/mL; cation-adjusted MH broth, ~10^5 CFU/mL, 2-fold dilution series, 37°C, 16 h
Method: as §1, §2

MRSA ATCC BAA-41 = experiment: MIC determination in broth; type: cell-based, Staphylococcus aureus; conditions: STIP3 variants, highest conc. tested 100 μg/mL; cation-adjusted MH broth, ~10^5 CFU/mL, 2-fold dilution series, 37°C, 16 h
Method: as §1, §2

MRSA ATCC BAA-2094 = experiment: MIC determination in broth; type: cell-based, Staphylococcus aureus; conditions: STIP3 variants, highest conc. tested 100 μg/mL; cation-adjusted MH broth, ~10^5 CFU/mL, 2-fold dilution series, 37°C, 16 h
Method: as §1, §2

MRSA ATCC BAA-1683 = experiment: MIC determination in broth; type: cell-based, Staphylococcus aureus; conditions: STIP3 variants, highest conc. tested 100 μg/mL; cation-adjusted MH broth, ~10^5 CFU/mL, 2-fold dilution series, 37°C, 16 h
Method: as §1, §2

MRSA ATCC BAA-44 = experiment: MIC determination in broth; type: cell-based, Staphylococcus aureus; conditions: STIP3 variants, highest conc. tested 100 μg/mL; cation-adjusted MH broth, ~10^5 CFU/mL, 2-fold dilution series, 37°C, 16 h
Method: as §1, §2

MRSA ATCC BAA-2313 = experiment: MIC determination in broth; type: cell-based, Staphylococcus aureus; conditions: STIP3 variants, highest conc. tested 100 μg/mL; cation-adjusted MH broth, ~10^5 CFU/mL, 2-fold dilution series, 37°C, 16 h
Method: as §1, §2

[2] = cation-adjusted MH broth, ~10^5 CFU/mL, 37°C, 16 h

Compound | MIC, S. aureus ATCC 33592 (SCCmec III) (MRSA ATCC 33592; [2]) | MIC, S. aureus ATCC 29213 (S. aureus ATCC 29213) | MIC, S. aureus ATCC BAA 42 (SCCmec VI) (MRSA ATCC BAA-42) | MIC, S. aureus ATCC BAA 41 (SCCmec II) (MRSA ATCC BAA-41) | MIC, S. aureus ATCC BAA 2094 (SCCmec V) (MRSA ATCC BAA-2094) | MIC, S. aureus ATCC BAA 1683 (SCCmec IV) (MRSA ATCC BAA-1683) | MIC, S. aureus ATCC BAA 44 (SCCmec I) (MRSA ATCC BAA-44) | MIC, S. aureus ATCC BAA 2313 (SCCmec XI) (MRSA ATCC BAA-2313) | other results
CC[C@@H](C)[C@@H](NC(=O)[C@@H](Cc1c[nH]c2ccccc12)NC(=O)[C@@H](CCCCN)NC(=O)[C@H](NC(=O)[C@@H](CC(C)C)NC(=O)CNC(=O)CNC(=O)[C@H](NC(=O)[C@H](NC(=O)c1ccc2c(c1)C(=O)OC21c2ccc(O)cc2Oc2cc(O)ccc21)[C@H](C)O)C(C)C)C(C)C)C(=O)N[C@H](CC(C)C)C(=O)N[C@H](CCCCN)C(=O)N[C@@H](C(=O)N[C@@H](C(=O)N[C@H](CCCCN)C(=O)N[C@H](CCCCN)C(=O)N[C@H](Cc1ccccc1)C(=O)N[C@H](C)C(N)=O)C(C)C)[C@H](C)O [FAM-D-STIP3-29] (5FAM-[dT][dV]GG[dL][dV][dK][dW][dI][dL][dK][dT][dV][dK][dK][dF][dA]-NH2; C-terminus assumed) |  |  |  |  |  |  |  |  | α-Helical content (%) [1]: 55%
CC[C@H](C)[C@H](NC(=O)[C@H](Cc1c[nH]c2ccccc12)NC(=O)[C@H](CCCCN)NC(=O)[C@@H](NC(=O)[C@H](CC(C)C)NC(=O)CNC(=O)CNC(=O)[C@@H](NC(=O)[C@@H](NC(=O)c1ccc2c(c1)C(=O)OC21c2ccc(O)cc2Oc2cc(O)ccc21)[C@@H](C)O)C(C)C)C(C)C)C(=O)N[C@@H](CC(C)C)C(=O)N[C@@H](CCCCN)C(=O)N[C@H](C(=O)N[C@H](C(=O)N[C@@H](CCCCN)C(=O)N[C@@H](CCCCN)C(=O)N[C@@H](Cc1ccccc1)C(=O)N[C@@H](C)C(N)=O)C(C)C)[C@@H](C)O [FAM-L-STIP3-29] (5FAM-TVGGLVKWILKTVKKFA-NH2; C-terminus assumed) |  |  |  |  |  |  |  |  | α-Helical content (%) [1]: 72%
CC[C@H](C)[C@H](NC(=O)[C@H](Cc1c[nH]c2ccccc12)NC(=O)[C@H](CCCCN)NC(=O)[C@@H](NC(=O)[C@H](CC(C)C)NC(=O)CNC(=O)CNC(=O)[C@@H](NC(=O)[C@@H](N)[C@@H](C)O)C(C)C)C(C)C)C(=O)N[C@@H](CC(C)C)C(=O)N[C@H](CCCCN)C(=O)N[C@H](C(=O)N[C@H](C(=O)N[C@@H](CCCCN)C(=O)N[C@@H](CCCCN)C(=O)N[C@@H](Cc1ccccc1)C(=O)N[C@@H](C)C(N)=O)C(C)C)[C@@H](C)O [STIP3-29-D1] (H-TVGGLVKWIL[dK]TVKKFA-NH2; N-terminus assumed) | 25 µg/mL (≈ 13.2 µM) | 12.5 µg/mL (≈ 6.62 µM) |  |  |  |  |  |  | Increase of the MIC relative to STIP3-29 (MRSA ATCC 33592; D-Lys substituted variants): 4 fold; MIC (μg/mL) for MRSA ATCC 33592 (MRSA ATCC 33592; Table 1 and text, cation-adjusted MH broth, ~10^5 CFU/mL, 37°C, 16 h): 25 µg/mL; α-Helical content (%) [1]: 51%
MTKDIVETVGGLVKWILDTVKKFA |  |  |  |  |  |  |  |  | fragment found (SspA): TVGGLVKWILDTVKKFA; also recorded: TVGGLVKWILD; also recorded: TVKKFA; also recorded: MTKDIVE
TAGGLVKWILDTVKKFA [V2A] |  |  |  |  |  |  |  |  | MIC, M. luteus (M. luteus ATCC 4698): 50 µg/mL
TVGGAVKWILDTVKKFA [L5A] |  |  |  |  |  |  |  |  | MIC, M. luteus (M. luteus ATCC 4698): 100 µg/mL
TVGGLAKWILDTVKKFA [V6A] |  |  |  |  |  |  |  |  | MIC, M. luteus (M. luteus ATCC 4698): 50 µg/mL
TVGGLVKAILDTVKKFA [W8A] |  |  |  |  |  |  |  |  | MIC, M. luteus (M. luteus ATCC 4698): 100 µg/mL
TVKGLVKWILATVKKFA [STIP3-16, rationally designed STIP3-1 variant] | 50 µg/mL | 100 µg/mL | 50 µg/mL | 50 µg/mL | 100 µg/mL | > (The > symbol indicates that no inhibition was observed at 100 μg/mL for the STIP3 variants) | 100 µg/mL | 100 µg/mL | 
TVKGLVKWILNVVKKFA [STIP3-14, rationally designed STIP3-1 variant] | 12.5 µg/mL | 25 µg/mL | 25 µg/mL | 25 µg/mL | 50 µg/mL | 25 µg/mL | 25 µg/mL | 12.5 µg/mL | 
TVKGLVKWILNVVKKFA-NH2 [STIP3-30, rationally designed STIP3-1 variant, C-terminal amide] | 12.5 µg/mL | 12.5 µg/mL | 25 µg/mL | 25 µg/mL | 25 µg/mL | 12.5 µg/mL | 12.5 µg/mL | 25 µg/mL | 
TVKKLVKWILKTVKKFA [STIP3-18, rationally designed STIP3-1 variant] | 100 µg/mL | 100 µg/mL | > (The > symbol indicates that no inhibition was observed at 100 μg/mL for the STIP3 variants) | 100 µg/mL | 100 µg/mL | > (The > symbol indicates that no inhibition was observed at 100 μg/mL for the STIP3 variants) | 100 µg/mL | > (The > symbol indicates that no inhibition was observed at 100 μg/mL for the STIP3 variants) | 
TVKVLVKWILKVVAKFA [STIP3-26, rationally designed STIP3-1 variant] | > (The > symbol indicates that no inhibition was observed at 100 μg/mL for the STIP3 variants) | > (The > symbol indicates that no inhibition was observed at 100 μg/mL for the STIP3 variants) | > (The > symbol indicates that no inhibition was observed at 100 μg/mL for the STIP3 variants) | > (The > symbol indicates that no inhibition was observed at 100 μg/mL for the STIP3 variants) | > (The > symbol indicates that no inhibition was observed at 100 μg/mL for the STIP3 variants) | > (The > symbol indicates that no inhibition was observed at 100 μg/mL for the STIP3 variants) | > (The > symbol indicates that no inhibition was observed at 100 μg/mL for the STIP3 variants) | > (The > symbol indicates that no inhibition was observed at 100 μg/mL for the STIP3 variants) | 
TVRALVKWILRTVAKFA [STIP3-20, rationally designed STIP3-1 variant] | 25 µg/mL | 25 µg/mL | 25 µg/mL | 12.5 µg/mL | 25 µg/mL | 25 µg/mL | 25 µg/mL | 50 µg/mL | 
TVRALVRWILRTVARFA [STIP3-23, rationally designed STIP3-1 variant] | 25 µg/mL | 25 µg/mL | 50 µg/mL | 6.25 µg/mL | 50 µg/mL | 25 µg/mL | 25 µg/mL | 25 µg/mL | 
TVXALVXWILXTVAXFA [STIP3-22, rationally designed STIP3-1 variant with L-ornithine] | 25 µg/mL | 25 µg/mL | 25 µg/mL | 25 µg/mL | 25 µg/mL | 25 µg/mL | 25 µg/mL | 100 µg/mL | 
f-MTKDIVETVGGLVKWILDTVKKFA |  |  |  |  |  |  |  |  | not cleaved (SspA): no SspA cleavage was observed
